Results from article PMC6364417, “Kinase inhibitor library screening identifies synergistic drug combinations effective in sensitive and resistant melanoma cells” (Journal of Experimental & Clinical Cancer Research : CR, 2019).

How the values were obtained:
Assay in all cases: Kinase inhibitor library screening, PrestoBlue cell viability, 1 or 10 μM, 72 h
501Mel cells (parental) = settings: 501Mel Parental, 72 h, in %
Method in brief: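 Each compound was applied to parental melanoma cells and to derivatives made resistant to Vemurafenib or Dabrafenib. After treatment, viability was read with PrestoBlue on a plate reader and expressed as % of untreated cells, with each line run at least in duplicate.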

[1] = test system: 501Mel-GP cells (Dabrafenib-resistant); settings: 501Mel GP, 72 h, in %
[2] = test system: 501Mel-XP cells (Vemurafenib-resistant); settings: 501Mel XP, 72 h, in %
A375 cells (parental) = settings: A375 Parental, 72 h; for cell viability, A375 Parental, 1μΜ / cell viability, A375 Parental, 10μΜ: in %
[3] = test system: A375-GP cells (Dabrafenib-resistant); settings: A375 GP, 72 h; for cell viability, A375 GP, 1μΜ / cell viability, A375 GP, 10μΜ: in %
[4] = test system: A375-XP cells (Vemurafenib-resistant); settings: A375 XP, 72 h; for cell viability, A375 XP, 1μΜ / cell viability, A375 XP, 10μΜ: in %
IGR37 cells (parental) = settings: IGR37 Parental, 72 h, in %
[5] = test system: IGR37-GP cells (Dabrafenib-resistant); settings: IGR37 GP, 72 h; for Cell viability in kinase inhibitor library screening, IGR37 GP, 1μΜ / cell viability, IGR37 GP, 1μΜ: in %
[6] = test system: IGR37-XP cells (Vemurafenib-resistant); settings: IGR37 XP, 72 h; for cell viability, IGR37 XP, 1μΜ / Cell viability in kinase inhibitor library screening, IGR37 XP, 1μΜ: in %

| SMILES | Cell viability in kinase inhibitor library screening, 501Mel Parental, 1μΜ (501Mel cells (parental)) | Cell viability in kinase inhibitor library screening, 501Mel Parental, 10μΜ (501Mel cells (parental)) | Cell viability in kinase inhibitor library screening, 501Mel GP, 1μΜ [1] | Cell viability in kinase inhibitor library screening, 501Mel GP, 10μΜ [1] | Cell viability in kinase inhibitor library screening, 501Mel XP, 1μΜ [2] | Cell viability in kinase inhibitor library screening, 501Mel XP, 10μΜ [2] | cell viability, 501Mel Parental, 10μΜ (501Mel cells (parental)) | cell viability, 501Mel GP, 10μΜ [1] | cell viability, 501Mel XP, 1μΜ [2] | cell viability, 501Mel XP, 10μΜ [2] | cell viability, A375 Parental, 1μΜ (A375 cells (parental)) | cell viability, A375 Parental, 10μΜ (A375 cells (parental)) | cell viability, A375 GP, 10μΜ [3] | cell viability, A375 XP, 1μΜ [4] | cell viability, IGR37 Parental, 1μΜ (IGR37 cells (parental)) | cell viability, IGR37 Parental, 10μΜ (IGR37 cells (parental)) | cell viability, IGR37 GP, 10μΜ [5] [%] | cell viability, IGR37 GP, 1μΜ [5] | cell viability, IGR37 XP, 10μΜ [6] [%] | cell viability, IGR37 XP, 1μΜ [6] | other results |
| --- | --- | --- | --- | --- | --- | --- | --- | --- | --- | --- | --- | --- | --- | --- | --- | --- | --- | --- | --- | --- | --- |
| Nc1nc(N)c2nc(-c3cccc(O)c3)c(-c3cccc(O)c3)nc2n1 [TG100-115] | 99.2 | 89.6 | 107.0 | 81.4 | 97.0 | 81.6 | – | – | – | – | – | – | – | – | – | – | – | – | – | – | Cell viability in kinase inhibitor library screening, A375 Parental, 10μΜ (A375 cells (parental)): 88.3; Cell viability in kinase inhibitor library screening, A375 Parental, 1μΜ (A375 cells (parental)): 100.3; Cell viability in kinase inhibitor library screening, A375 GP, 1μΜ [3]: 100.0; Cell viability in kinase inhibitor library screening, A375 GP, 10μΜ [3]: 91.7; Cell viability in kinase inhibitor library screening, A375 XP, 1μΜ [4]: 103.9; Cell viability in kinase inhibitor library screening, IGR37 Parental, 1μΜ (IGR37 cells (parental)): 97.1; Cell viability in kinase inhibitor library screening, IGR37 Parental, 10μΜ (IGR37 cells (parental)): 98.5; Cell viability in kinase inhibitor library screening, IGR37 GP, 10μΜ [5]: 89.4%; Cell viability in kinase inhibitor library screening, IGR37 GP, 1μΜ [5]: 96.0; Cell viability in kinase inhibitor library screening, IGR37 XP, 10μΜ [6]: 70.9% |
| Cc1cnc(Nc2ccc(N3CCN(C)CC3)cc2)nc1Nc1cccc(S(=O)(=O)NC(C)(C)C)c1 [TG101209] | – | – | – | – | – | – | 0.6 | 1.7 | 85.2 | -0.127 | 87.8 | 11.9 | 14.4 | 93.3 | 97.5 | 6.5 | 3.2 | 98.5 | 1.6 | 82.7 | cell viability, 501Mel GP, 1μΜ [1]: 109.4; cell viability, A375 GP, 1μΜ [3]: 79.9; cell viability, A375 XP, 10μΜ [4]: 13.1 |
| Cc1cnc(Nc2ccc(OCCN3CCCC3)cc2)nc1Nc1cccc(S(=O)(=O)NC(C)(C)C)c1 [TG101348 (SAR302503)] | – | – | – | – | – | – | 1.4 | 1.0 | 89.8 | -0.1 | 100.2 | 12.9 | 15.0 | 99.7 | 98.0 | 21.1 | 6.2 | 95.7 | 2 | 94.2 | cell viability, 501Mel Parental, 1μΜ (501Mel cells (parental)): 98.7; cell viability, A375 GP, 1μΜ [3]: 89.1; cell viability, A375 XP, 10μΜ [4]: 17.0 |
| Nc1nc(N)c2nc(-c3cccc(O)c3)cnc2n1 [TG 100713] | 94.5 | 56.1 | 98.4 | 36.6 | 90.7 | 26.9 | – | – | – | – | – | – | – | – | – | – | – | – | – | – | Cell viability in kinase inhibitor library screening, A375 Parental, 10μΜ (A375 cells (parental)): 43.8; Cell viability in kinase inhibitor library screening, A375 Parental, 1μΜ (A375 cells (parental)): 94.5; Cell viability in kinase inhibitor library screening, A375 GP, 1μΜ [3]: 94.1; Cell viability in kinase inhibitor library screening, A375 GP, 10μΜ [3]: 37.7; Cell viability in kinase inhibitor library screening, A375 XP, 1μΜ [4]: 93.7; Cell viability in kinase inhibitor library screening, A375 XP, 10μΜ [4]: 40.5; Cell viability in kinase inhibitor library screening, IGR37 Parental, 10μΜ (IGR37 cells (parental)): 49.5; Cell viability in kinase inhibitor library screening, IGR37 GP, 10μΜ [5]: 58.8%; Cell viability in kinase inhibitor library screening, IGR37 GP, 1μΜ [5]: 93.1; Cell viability in kinase inhibitor library screening, IGR37 XP, 10μΜ [6]: 21.2%; Cell viability in kinase inhibitor library screening, IGR37 XP, 1μΜ [6]: 97.8 |
| Cc1cc(C(C)Nc2ccccc2)c2nc(N3CCOCC3)cc(=O)n2c1 (stereo not drawn) [TGX-221] | 99.4 | 97.1 | 102.9 | 78.5 | 92.5 | 67.8 | – | – | – | – | – | – | – | – | – | – | – | – | – | – | Cell viability in kinase inhibitor library screening, A375 Parental, 10μΜ (A375 cells (parental)): 94.9; Cell viability in kinase inhibitor library screening, A375 Parental, 1μΜ (A375 cells (parental)): 103.0; Cell viability in kinase inhibitor library screening, A375 GP, 1μΜ [3]: 95.9; Cell viability in kinase inhibitor library screening, A375 GP, 10μΜ [3]: 91.3; Cell viability in kinase inhibitor library screening, A375 XP, 1μΜ [4]: 107.8; Cell viability in kinase inhibitor library screening, A375 XP, 10μΜ [4]: 99.8; Cell viability in kinase inhibitor library screening, IGR37 Parental, 1μΜ (IGR37 cells (parental)): 97.4; Cell viability in kinase inhibitor library screening, IGR37 Parental, 10μΜ (IGR37 cells (parental)): 96.6; Cell viability in kinase inhibitor library screening, IGR37 GP, 10μΜ [5]: 85.9%; Cell viability in kinase inhibitor library screening, IGR37 GP, 1μΜ [5]: 93.0; Cell viability in kinase inhibitor library screening, IGR37 XP, 10μΜ [6]: 61.6%; Cell viability in kinase inhibitor library screening, IGR37 XP, 1μΜ [6]: 95.0 |
| Nc1cccc(-c2cc3c(Oc4cccc(O)c4)ncnc3[nH]2)c1 [TWS119] | – | – | – | – | – | – | 35.3 | 40.8 | 95.3 | 26.6 | 93.6 | 29.8 | 41.9 | 96.8 | 100.4 | 65.2 | 61.4 | 96.5 | 33.3 | 80.5 | cell viability, 501Mel Parental, 1μΜ (501Mel cells (parental)): 90.4; cell viability, A375 GP, 1μΜ [3]: 97.7; cell viability, A375 XP, 10μΜ [4]: 67.4 |
| COc1cc2c(N3CCN(C(=O)Nc4ccc(OC(C)C)cc4)CC3)ncnc2cc1OCCCN1CCCCC1 [Tandutinib (MLN518)] | – | – | – | – | – | – | 95.2 | 85.5 | 94.1 | 71.2 | 106.1 | 89.7 | 83.5 | 107.0 | 100.2 | 98.5 | 91.4 | 95.6 | 43.4 | 103.1 | cell viability, 501Mel GP, 1μΜ [1]: 103.5 |
